Experimental data published in patent US11957680B2, “Pyruvate kinase activators for use in treating blood disorders” (Agios Pharmaceuticals, Inc., priority 2017, dated 2024).

Key:
wild type PKR [1] = biological target: T1, wild type PKR (Homo sapiens, UniProt P30613); assay: PKR (wild type) enzyme AC50 assay, LDH/NADH-coupled, absorbance at 340 nm; assay type: biochemical; conditions: for EC50: Table 4, AC50, enzyme assay, read-out: PKR WT; for AC50: Table 2, enzyme assay, read-out: PKR WT AC50
T1 sequence (P30613 whole entry): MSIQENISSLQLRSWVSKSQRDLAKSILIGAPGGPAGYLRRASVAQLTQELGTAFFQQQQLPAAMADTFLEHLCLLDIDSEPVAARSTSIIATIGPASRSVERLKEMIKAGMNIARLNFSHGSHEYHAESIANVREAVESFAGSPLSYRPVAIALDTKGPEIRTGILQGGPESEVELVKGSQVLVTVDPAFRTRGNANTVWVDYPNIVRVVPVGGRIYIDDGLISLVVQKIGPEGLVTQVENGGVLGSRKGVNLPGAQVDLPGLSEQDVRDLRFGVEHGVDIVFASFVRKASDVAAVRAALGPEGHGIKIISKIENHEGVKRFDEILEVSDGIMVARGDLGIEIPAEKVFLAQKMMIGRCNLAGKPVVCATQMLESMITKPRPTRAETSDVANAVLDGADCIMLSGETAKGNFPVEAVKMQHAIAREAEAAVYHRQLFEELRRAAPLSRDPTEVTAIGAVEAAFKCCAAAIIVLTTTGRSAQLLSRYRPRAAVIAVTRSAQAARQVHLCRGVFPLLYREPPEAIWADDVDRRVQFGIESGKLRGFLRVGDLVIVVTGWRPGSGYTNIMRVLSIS
Method: (§1) Example 11. PKR Mutant Assay
(§2) PKR or PKR mutant enzyme solution was diluted into a reaction mix, which contains 1× buffer (100 mM KCl, 50 mM Tris pH 7.5, 5 mM MgCl2) as well as PEP (conc depends on enzyme), 180 μM NADH, 0.5 units LDH, 1 mM DTT, 0.03% BSA; final assay concentrations after 1.11 fold dilution are indicated.
(§3) 2 μL of test compound was added into wells first, and then 180 μL reaction mix was added.
(§4) Reactions mixture with test compound was assembled except for ADP, and plates were stored for 60 minutes at room temperature.
(§5) 20 uL ADP was added to start reaction at room temperature and reaction progress was measured as changes in absorbance at 340 nm wavelength at room temperature.
(§6) Test Compound Preparation:
(§7) Test compound stock was made at 100× concentration in 100% DMSO (10 mM)
(§8) 1 to 3 dilutions were made for 11 points (i.e. 50 μl of first concentration added to 100 μl 100% DMSO to yield 3.33 mM, 50 μl of this added to 100 μl DMSO to yield 1.11 mM, and so forth) • 1 to 100 dilution into assay (2 μl in 200 μl) yielded starting concentration of 100 μM, decreasing 3 fold for 11 points.
(§9) Assay Buffer: 100 mM KCl, 50 mM Tris 7.5, 5 mM MgCl2, 1 mM DTT, 0.03% BSA
(§10) Reaction Mixture: PKR mutant enzyme: 40-400 ng/well; ADP: 0.2-1.65 mM; PEP: 0.1-0.5 mM; NADH: 180 μM; LDH: 0.5 units (Sigma #59023); DTT: 1 mM; BSA: 0.03%.

PKR K410E = PKR K410E (Homo sapiens, UniProt P30613, K410E); assay: PKR mutant assay (K410E), AC50, LDH/NADH-coupled, absorbance at 340 nm; assay type: biochemical; conditions: for EC50: Table 4, AC50, enzyme assay; for AC50: Table 2, enzyme assay
Sequence of PKR K410E (P30613 whole entry K410E): as the sequence (P30613 whole entry) above, with K410E counted along it
Method: as §1, §2, §3, §4, §5, §6, §7, §8, §9, §10

PKR R510Q = PKR R510Q (Homo sapiens, UniProt P30613, R510Q); assay: PKR mutant assay (R510Q), AC50, LDH/NADH-coupled, absorbance at 340 nm; assay type: biochemical; conditions: for EC50: Table 4, AC50, enzyme assay, read-out: PK R510Q; for AC50 / PK R510Q AC50: Table 2, enzyme assay; for AC50: read-out: PK R510Q AC50
Sequence of PKR R510Q (P30613 whole entry R510Q): as the sequence (P30613 whole entry) above, with R510Q counted along it
Method: as §1, §2, §3, §4, §5, §6, §7, §8, §9, §10

wild type PKR [2] = biological target: T1, wild type PKR; assay: Cell based ATP assay in purified red blood cells (Cell-Titer-Glo); parameters: endogenous in cells; host or cells: purified red blood cells from healthy volunteers; conditions: overnight at 37° C., ATP levels; for EC50: Table 4, AC50, RBCs; for AC50 / Cell based ATP assay AC50: Table 2, RBCs
Method: Example 16. Red Blood Cell (RBC) Purification
Fresh blood drawn from healthy volunteers into K2EDTA tubes was collected. Whole blood was pelleted by spinning at 500 g for 10 minutes. Cut transfusion bag port off of Purecell leukocyte reduction neofilter (Fisher NC0267633) one (1) inch above filter. Attach a 10 ml syringe barrel to the remaining cut tubing attached to neofilter. The plasma layer was removed from the pellet of the whole blood and the pellet was resuspended in 2× volume of phosphate buffered saline (PBS). Transfer 9 ml re-suspended blood cell pellet to prepared 10 ml syringe that is attached to the neofilter. Allow whole blood to gravity flow through filter until all fluid runs through upper tubing into filter disc. Add plunger to the syringe, remove syringe from clamp and invert the filter, then plunge air through the syringe filter system. Using a new 5 ml syringe, remove filtered RBCs from the bag by the syringe port and transfer purified RBCs to a 5 ml snap cap tube that has been incubated on ice. Spin 5 ml snap cap tube at 500 g for 10 minutes at 15 C, aspirate supernatant and resuspend in AGAM (1×PBS, 1% glucose, 170 mg/L adenine, 5.25 g/L mannitol) at a density of 4×10^9 cells/mL.
Example 17. Cell Based ATP Assay
For cell based ATP assays, the compound as described herein was prepared in 100% DMSO as a 10 mM stock. Serial dilutions (1:4) were performed in 96-well V-bottom storage plate and then added 1:100 to 96-well V-bottom plates containing AGAM. RBCs were diluted in AGAM media to a density of 1×10^7 cells/mL before added 90 μL/well to black clear bottom assay plates (final compound concentration at 0.1% DMSO concentration). Assay plates were sealed using aluminum foil seals and incubated overnight at 37° C. in a humidified chamber. ATP levels were read out using Cell-Titer-Glo (Promega).

SMILES	EC50 (wild type PKR [1]) [nM]	EC50 (PKR K410E) [nM]	EC50 (PKR R510Q) [nM]	EC50 (wild type PKR [2]) [nM]	AC50 (wild type PKR [1]) [nM]	AC50 (PKR K410E) [nM]	AC50 (PKR R510Q) [nM]	AC50 (wild type PKR [2]) [nM]	Cell based ATP assay AC50 (wild type PKR [2])	PK R510Q AC50 (PKR R510Q)
Cn1c2nc(Cc3cc[nH]n3)sc2c2cnn(Cc3cccc4c3NS(=O)(=O)N4)c(=O)c21 [Compound 275]	> 800	> 800	> 800	> 1000	–	–	–	–	–	–
Cn1c2nc(Cc3cc[nH]n3)sc2c2cnn(Cc3ccc4oc(=O)[nH]c4n3)c(=O)c21 [Compound 386]	< 300	< 300	< 300	≤ 1000	–	–	–	–	–	–
Cn1c2nc(Cc3ccncc3)sc2c2cnn(Cc3cccc4[nH]ncc34)c(=O)c21 [Compound 161]	–	–	–	–	> 800	> 800	> 800	> 1000	–	–
Cc1nc2c(s1)c1cnn(Cc3cccc(C(N)=O)c3)c(=O)c1n2C [Compound 395]	> 800	301 to 800	> 800	> 1000	–	–	–	–	–	–
COc1cccc(Cn2ncc3c4sc(Cc5ccc(C(F)(F)F)cc5)nc4n(C)c3c2=O)c1 [Compound 41]	–	–	–	–	< 300	< 300	< 300	≤ 1000	–	–
CCOC(=O)c1cccc(Cn2ncc3c4sc(C)nc4n(C)c3c2=O)c1 [Compound 10]	–	–	–	–	> 800	> 800	> 800	–	No Fit	–
Cn1c2nc(Cc3ccc(C#N)cc3)sc2c2cnn(Cc3cccc4[nH]ncc34)c(=O)c21 [Compound 93]	–	–	–	–	> 800	> 800	> 800	> 1000	–	–
Cn1c2nc(Cc3cc[nH]n3)sc2c2cnn(Cc3ccc4cc(F)[nH]c4n3)c(=O)c21 [Compound 391]	< 300	< 300	< 300	≤ 1000	–	–	–	–	–	–
Cc1nc2c(s1)c1cnn(Cc3ccc4[nH]c(=O)[nH]c4c3)c(=O)c1n2C [Compound 61]	–	–	–	–	> 800	> 800	> 800	–	No Fit	–
CNc1ccc(Cc2nc3c(s2)c2cnn(Cc4cccc5[nH]ncc45)c(=O)c2n3C)cc1 [Compound 109]	–	–	–	–	< 300	< 300	< 300	≤ 1000	–	–
CC(=O)c1cccc(Cn2ncc3c4sc(Cc5cc[nH]n5)nc4n(C)c3c2=O)c1 [Compound 190]	< 300	< 300	< 300	≤ 1000	–	–	–	–	–	–
Cn1c2nc(Cc3ccc(=O)[nH]c3)sc2c2cnn(Cc3cccc4[nH]ncc34)c(=O)c21 [Compound 174]	–	–	–	–	> 800	301 to 800	> 800	–	No Fit	–
COc1ccc(Cc2nc3c(s2)c2cnn(Cc4cccc5[nH]ncc45)c(=O)c2n3C)cn1 [Compound 173]	–	–	–	–	< 300	< 300	< 300	≤ 1000	–	–
Cn1c2nc([S+](C)[O-])sc2c2cnn(Cc3cccc4c3CCNC4)c(=O)c21 (stereo not shown) [Compound 80]	–	–	–	–	> 800	> 800	< 300	> 1000	–	–
CSc1nc2c(s1)c1cnn(Cc3cccc(S(N)(=O)=O)c3)c(=O)c1n2C [Compound 110]	–	–	–	–	> 800	> 800	> 800	–	No Fit	–
COC(=O)C(c1cc[nH]n1)c1nc2c(s1)c1cnn(Cc3cccc4[nH]ncc34)c(=O)c1n2C (stereo not shown) [Compound 171]	–	–	–	–	> 800	301 to 800	> 800	≤ 1000	–	–
Cn1c2nc(Cc3nnco3)sc2c2cnn(Cc3cccc4[nH]ncc34)c(=O)c21 [Compound 221]	< 300	< 300	301 to 800	> 1000	–	–	–	–	–	–
COc1cccc(Cn2ncc3c4sc([S+](C)[O-])nc4n(C)c3c2=O)c1 (stereo not shown) [Compound 24]	–	–	–	–	< 300	< 300	< 300	> 1000	–	–
Cn1c2nc(CN)sc2c2cnn(Cc3cccc4[nH]ncc34)c(=O)c21 [Compound 132]	–	–	–	–	> 800	301 to 800	301 to 800	> 1000	–	–

SMILES	EC50 (wild type PKR [1]) [nM]	EC50 (PKR K410E) [nM]	EC50 (PKR R510Q) [nM]	EC50 (wild type PKR [2]) [nM]	AC50 (wild type PKR [1]) [nM]	AC50 (PKR K410E) [nM]	AC50 (PKR R510Q) [nM]	AC50 (wild type PKR [2]) [nM]	Cell based ATP assay AC50 (wild type PKR [2])	PK R510Q AC50 (PKR R510Q)
COc1cccc(Cn2ncc3c4sc(Sc5ccccc5)nc4n(C)c3c2=O)c1 [Compound 34]	–	–	–	–	< 300	< 300	< 300	≤ 1000	–	–
Cn1c2nc(Oc3ccn[nH]3)sc2c2cnn(Cc3cccc(N)n3)c(=O)c21 [Compound 396]	< 300	< 300	< 300	≤ 1000	–	–	–	–	–	–
COc1cccc(Cn2ncc3c4sc(S(=O)(=O)c5ccccc5)nc4n(C)c3c2=O)c1 [Compound 36]	–	–	–	–	> 800	301 to 800	301 to 800	> 1000	–	–
Cn1c2nc([S+](C)[O-])sc2c2cnn(Cc3ccc(C#N)cc3)c(=O)c21 (stereo not shown) [Compound 75]	–	–	–	–	> 800	> 800	–	≤ 1000	–	No Fit
Cn1c2nc(Cc3cn[nH]n3)sc2c2cnn(Cc3cccc(OC(F)(F)F)c3F)c(=O)c21 [Compound 329]	301 to 800	301 to 800	< 300	≤ 1000	–	–	–	–	–	–
Cn1c2nc(Cc3nccs3)sc2c2cnn(Cc3cccc4[nH]ncc34)c(=O)c21 [Compound 222]	< 300	< 300	< 300	≤ 1000	–	–	–	–	–	–
Cn1c2nc(Cc3cc[nH]n3)sc2c2cnn(Cc3cccc(O)c3)c(=O)c21 [Compound 369]	< 300	< 300	< 300	≤ 1000	–	–	–	–	–	–
Cc1nc2c(s1)c1cnn(Cc3ccccc3O)c(=O)c1n2C [Compound 18]	–	–	–	–	301 to 800	301 to 800	< 300	≤ 1000	–	–
Cn1c2nc(CNS(C)(=O)=O)sc2c2cnn(Cc3cccc4[nH]ncc34)c(=O)c21 [Compound 142]	–	–	–	–	< 300	< 300	301 to 800	≤ 1000	–	–
Cc1nc2c(s1)c1cnn(Cc3cccc(CO)c3)c(=O)c1n2C [Compound 45]	–	–	–	–	< 300	< 300	< 300	≤ 1000	–	–
CCOC(=O)Cn1ncc2c3sc(C)nc3n(C)c2c1=O [Compound 66]	–	–	–	–	> 800	> 800	–	–	No Fit	No Fit
Cc1nc2c(s1)c1cnn(Cc3cccc4c3cnn4C)c(=O)c1n2C [Compound 76]	–	–	–	–	> 800	< 300	< 300	≤ 1000	–	–
Cn1c2nc(Cc3cc[nH]n3)sc2c2cnn(Cc3cccc4[nH][nH]c(=O)c34)c(=O)c21 [Compound 307]	< 300	< 300	< 300	≤ 1000	–	–	–	–	–	–
Cn1ncc2nc(Cn3ncc4c5sc(Cc6cc[nH]n6)nc5n(C)c4c3=O)ccc21 [Compound 288]	< 300	< 300	< 300	≤ 1000	–	–	–	–	–	–
Cn1c2nc(Cc3cc[nH]n3)sc2c2cnn(Cc3ccccc3)c(=O)c21 [Compound 193]	< 300	< 300	< 300	≤ 1000	–	–	–	–	–	–
COc1cccc(Cn2ncc3c4sc(C(F)c5ccccc5)nc4n(C)c3c2=O)c1 (stereo not shown) [Compound 12]	–	–	–	–	< 300	< 300	< 300	–	–	–
COc1ccc(Cn2ncc3c4sc(C)nc4n(C)c3c2=O)cc1 [Compound 2]	–	–	–	–	< 300	< 300	–	≤ 1000	–	–
Cc1nc2c(s1)c1cnn(Cc3ccc(O)cc3)c(=O)c1n2C [Compound 16]	–	–	–	–	< 300	< 300	< 300	–	–	–
